Drawing on patent US20260092061A1, “COMPOUNDS FOR TARGETED PROTEIN DEGRADATION” (Amphista Therapeutics Limited, priority 2022, published 2026), this text covers DC50 and Dmax for 17 molecules.

SMILES strings stand for the structures. Where only a bound is given, the exact number is not on record here.

The target of the experiment is T1, BRD9 (Homo sapiens, UniProt Q9H8M2).
T1 sequence (Q9H8M2 1-597): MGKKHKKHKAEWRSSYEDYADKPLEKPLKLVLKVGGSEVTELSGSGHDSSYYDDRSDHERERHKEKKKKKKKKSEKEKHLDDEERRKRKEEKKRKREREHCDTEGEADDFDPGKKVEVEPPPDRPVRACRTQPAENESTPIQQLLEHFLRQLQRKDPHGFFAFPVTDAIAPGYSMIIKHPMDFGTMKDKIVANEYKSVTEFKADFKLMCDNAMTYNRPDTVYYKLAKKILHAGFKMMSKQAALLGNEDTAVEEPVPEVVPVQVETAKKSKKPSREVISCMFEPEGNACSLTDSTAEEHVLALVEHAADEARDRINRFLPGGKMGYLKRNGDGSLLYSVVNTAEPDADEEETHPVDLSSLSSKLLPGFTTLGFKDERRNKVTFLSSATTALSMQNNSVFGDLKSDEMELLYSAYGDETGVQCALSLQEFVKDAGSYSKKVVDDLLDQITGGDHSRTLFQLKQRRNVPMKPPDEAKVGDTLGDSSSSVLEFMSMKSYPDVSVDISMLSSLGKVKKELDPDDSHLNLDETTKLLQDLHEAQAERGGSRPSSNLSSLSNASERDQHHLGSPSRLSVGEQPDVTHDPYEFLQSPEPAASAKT
Description: Degradation of BRD9 (IF), immunofluorescence in MV4-11 cells, 24 hours (Assay Protocol 2). The format is cell-based. On the set-up: A suspension of MV4-11 cells (ATCC CRL-9591) was prepared; host or cells: MV4-11. The following applies: BRD9 degradation; for DC50: Assay protocol 2, read-out: DC50; for Dmax: MV4-11, Assay protocol 2, read-out: Dmax. In outline:
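MV4-11 cells treated with compound 24 h at 37° C., then fixed, permeabilised and immunostained for BRD9 (anti-BRD9 E4Q3F, Alexa 647 secondary, Hoechst counterstain). High-content imaging quantified nuclear BRD9 signal; % BRD9 remaining normalised to DMSO and 100 nM CFT-8634 controls.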

Regarding `COc1cc(-c2cn(C)c(=O)c(C)c2C)ccc1OC1CCN(Cc2cccc3c2CCN(C(=O)/C(C#N)=C/C(C)(C)C)[C@H]3C)CC1` (single isomer, unassigned) [Compound C31, (E/Z)-2-(5-((4-(2-methoxy-4-(1,4,5-trimethyl-6-oxo-1,6-dihydropyridin-3-yl)phenoxy)piperidin-1-yl)methyl)-1-methyl-1,2,3,4-tetrahydroisoquinoline-2-carbonyl)-4,4-dimethylpent-2-enenitrile], the DC50 was in the range of 1.25 to 10 nM and the Dmax was above 75%.
With `COc1cc(-c2cn(C)c(=O)c(C)c2C)cc(OC)c1CN1CCN(Cc2cccc3c2CCN(C(=O)/C(C#N)=C/C2CCC(F)(F)CC2)C3C)CC1` (mixture of isomers) [Compound B72, (E/Z)-3-(4,4-difluorocyclohexyl)-2-(5-((4-(2,6-dimethoxy-4-(1,4,5-trimethyl-6-oxo-1,6-dihydropyridin-3-yl)benzyl)piperazin-1-yl)methyl)-1-methyl-1,2,3,4-tetrahydroisoquinoline-2-carbonyl)acrylonitrile], the DC50 fell in the range of 1.25 to 10 nM and the Dmax was 40 to 70%.
In the same order, the values of `COc1cc(-c2cn(C)c(=O)c(C)c2C)cc(OC)c1CN1CCN(c2cccc(C3CCCN3C(=O)/C(C#N)=C/C(C)C)c2)CC1` (mixture of isomers) [Compound B106, (E/Z)-2-(2-(3-(4-(2,6-dimethoxy-4-(1,4,5-trimethyl-6-oxo-1,6-dihydropyridin-3-yl)benzyl)piperazin-1-yl)phenyl)pyrrolidine-1-carbonyl)-4-methylpent-2-enenitrile] are 1.25 to 10 nM and above 75%.
Turning to `CC[C@@H]1c2cccc(CN3CCN(Cc4c(OC)cc(-c5cn(C)c(=O)c(C)c5C)cc4OC)C4(CC4)C3)c2CCN1C(=O)/C(C#N)=C/C(C)(C)CF` (single isomer, unassigned) [Compound C105, (E/Z)-2-(5-((4-(2,6-dimethoxy-4-(1,4,5-trimethyl-6-oxo-1,6-dihydropyridin-3-yl)benzyl)-4,7-diazaspiro[2.5]octan-7-yl)methyl)-1-ethyl-1,2,3,4-tetrahydroisoquinoline-2-carbonyl)-6-fluoro-4,4-dimethylpent-2-enenitrile], the DC50 is below 1.25 nM and the Dmax is above 75%.
Take `COc1cc(-c2cn(C)c(=O)c(C)c2C)cc(OC)c1CN1CCN(Cc2cccc3c2CCN(C(=O)/C(C#N)=C/C2(CF)CC2)C3C)C2(CC2)C1` (mixture of isomers) [Compound B144, (E/Z)-2-(5-((7-(2,6-dimethoxy-4-(1,4,5-trimethyl-6-oxo-1,6-dihydropyridin-3-yl)benzyl)-4,7-diazaspiro[2.5]octan-4-yl)methyl)-1-methyl-1,2,3,4-tetrahydroisoquinoline-2-carbonyl)-3-(1-(fluoromethyl)cyclopropyl)acrylonitrile]: the 50% degradation concentration (DC50) was below 1.25 nM and the Dmax is above 75%.
As for `COc1cc(-c2cc(C)c(=O)n(C)c2)cc(OC)c1CN1CCN(Cc2cccc(C3CCCN3C(=O)/C(C#N)=C/C(C)(C)C)c2)CC1` (mixture of isomers) [Compound B81], the DC50 is below 1.25 nM and the Dmax is above 75%.
For the molecule `COc1cc(-c2cn(C)c(=O)c(C)c2C)cc(OC)c1C(=O)N1CCN(Cc2cccc3c2CCN(C(=O)/C(C#N)=C/c2cccc(Br)n2)C3C)CC1` (mixture of isomers) [Compound B80, (E/Z)-3-(6-bromopyridin-2-yl)-2-(5-((4-(2,6-dimethoxy-4-(1,4,5-trimethyl-6-oxo-1,6-dihydropyridin-3-yl)benzoyl)piperazin-1-yl)methyl)-1-methyl-1,2,3,4-tetrahydroisoquinoline-2-carbonyl)acrylonitrile], the DC50 is below 1.25 nM and the Dmax was 40 to 70%.
For `COc1cc(-c2cn(C)c(=O)c(C)c2C)cc(OC)c1CN1CCCN(Cc2cccc3c2CCN(C(=O)/C(C#N)=C/C(C)(C)C)C3C(C)C)CC1` (mixture of isomers) [Compound C11, (E/Z)-2-(5-((4-(2,6-dimethoxy-4-(1,4,5-trimethyl-6-oxo-1,6-dihydropyridin-3-yl)benzyl)-1,4-diazepan-1-yl)methyl)-1-isopropyl-1,2,3,4-tetrahydroisoquinoline-2-carbonyl)-4,4-dimethylpent-2-enenitrile], the DC50 was 1.25 to 10 nM and the Dmax was in the range of 40 to 70%.
The matching figures for `COc1cc(-c2cn(C)c(=O)c(C)c2C)cc(OC)c1CN1CCN(Cc2cccc3c2CCN(C(=O)/C(C#N)=C/c2cccc(Br)n2)C3C)C(C)(C)C1` (mixture of isomers) [Compound B109, (E/Z)-3-(6-bromopyridin-2-yl)-2-(5-((4-(2,6-dimethoxy-4-(1,4,5-trimethyl-6-oxo-1,6-dihydropyridin-3-yl)benzyl)-2,2-dimethylpiperazin-1-yl)methyl)-1-methyl-1,2,3,4-tetrahydroisoquinoline-2-carbonyl)acrylonitrile]: 1.25 to 10 nM and above 75%.
The matching figures for `CC[C@H]1CN(Cc2c(OC)cc(-c3cn(C)c(=O)c(C)c3C)cc2OC)CCN1Cc1cccc2c1CCN(C(=O)/C(C#N)=C/C(C)(C)C)C2C` (mixture of isomers) [Compound B113, (E/Z)-2-(5-(((S)-4-(2,6-dimethoxy-4-(1,4,5-trimethyl-6-oxo-1,6-dihydropyridin-3-yl)benzyl)-2-ethylpiperazin-1-yl)methyl)-1-methyl-1,2,3,4-tetrahydroisoquinoline-2-carbonyl)-4,4-dimethylpent-2-enenitrile]: 1.25 to 10 nM and above 75%.
For the molecule `COc1cc(-c2cn(C)c(=O)c(C)c2C)cc(OC)c1CN1CCN(Cc2ccc3c(c2)CN(C(=O)/C(C#N)=C/C(C)(C)C)CC3)C2(CC2)C1` [Compound C1, (E/Z)-2-(7-((7-(2,6-dimethoxy-4-(1,4,5-trimethyl-6-oxo-1,6-dihydropyridin-3-yl)benzyl)-4,7-diazaspiro[2.5]octan-4-yl)methyl)-1,2,3,4-tetrahydroisoquinoline-2-carbonyl)-4,4-dimethylpent-2-enenitrile], the DC50 was below 1.25 nM and the greatest degradation seen (Dmax) was above 75%.
In the same order, the values of `COc1cc(-c2cn(C)c(=O)c(C)c2C)cc(OC)c1CN1CCN(Cc2cccc3c2CCN(C(=O)/C(C#N)=C/C(C)(C)C)[C@H]3C)CC12CC2` (single isomer, unassigned) [Compound C4, (E/Z)-2-(5-((4-(2,6-dimethoxy-4-(1,4,5-trimethyl-6-oxo-1,6-dihydropyridin-3-yl)benzyl)-4,7-diazaspiro[2.5]octan-7-yl)methyl)-1-methyl-1,2,3,4-tetrahydroisoquinoline-2-carbonyl)-4,4-dimethylpent-2-enenitrile] are 1.25 to 10 nM and above 75%.
In the same order, the values of `COc1cc(-c2cn(C)c(=O)c(C)c2C)ccc1OC1CCC(Cc2cccc3c2CCN(C(=O)/C(C#N)=C/C(C)(C)N2CCN(C4COC4)CC2)C3C)CC1` (stereo not shown) [Compound C51] are 25 to 1000 nM and 40 to 70%.
`COc1cc(-c2cn(C)c(=O)c(C)c2C)cc(OC)c1CN1CCN(Cc2cccc3c2CCN(C(=O)/C(C#N)=C/C(C)(C)C)C3C)[C@@H](C)C1` (mixture of isomers) [Compound B102]: the DC50 lay in the range of 25 to 1000 nM and the Dmax was above 75%.
The matching figures for `COc1cc(/C=C(\C#N)C(=O)N2CCc3c(CN4CCN(Cc5c(OC)cc(-c6cn(C)c(=O)c(C)c6C)cc5OC)CC4)cccc3C2C)c(F)cn1` (mixture of isomers) [Compound B92, (E/Z)-2-(5-((4-(2,6-dimethoxy-4-(1,4,5-trimethyl-6-oxo-1,6-dihydropyridin-3-yl)benzyl)piperazin-1-yl)methyl)-1-methyl-1,2,3,4-tetrahydroisoquinoline-2-carbonyl)-3-(5-fluoro-2-methoxypyridin-4-yl)acrylonitrile]: below 1.25 nM and 40 to 70%.
In the same order, the values of `COc1cc(-c2cn(C)c(=O)c(C)c2C)cc(OC)c1CN1CCN(Cc2ccc3c(c2)[C@H](C)N(C(=O)/C(C#N)=C/C(C)(C)CF)CC3)C2(CC2)C1` (single isomer, unassigned) [Compound B201, (E/Z)-2-(7-((7-(2,6-dimethoxy-4-(1,4,5-trimethyl-6-oxo-1,6dihydropyridin-3-yl)benzyl)-4,7-diazaspiro[2.5]octan-4-yl)methyl)-1-methyl-1,2,3,4-tetrahydroisoquinoline-2-carbonyl)-5-fluoro-4,4-dimethylpent-2-enenitrile] are 25 to 1000 nM and 40 to 70%.
On to `COc1cc(-c2cn(C)c(=O)c(C)c2C)cc(OC)c1CN1CCC2(CC1)CN(c1cccc3c1CCN(C(=O)/C(C#N)=C/C(C)(C)C)[C@@H]3C)C2` (mixture of isomers) [Compound C45, (E/Z)-2-(5-(7-(2,6-dimethoxy-4-(1,4,5-trimethyl-6-oxo-1,6-dihydropyridin-3-yl)benzyl)-2,7-diazaspiro[3.5]nonan-2-yl)-1-methyl-1,2,3,4-tetrahydroisoquinoline-2-carbonyl)-4,4-dimethylpent-2-enenitrile], for which the DC50 lay within 10 to 25 nM and the Dmax is 40 to 70%.
